Measured values: publication PMC10900488, “Synthesis and Evaluation of (Bis)benzyltetrahydroisoquinoline Alkaloids as Antiparasitic Agents” (JACS Au, 2024)

Assays:
[1] = tested on: T. cruzi amastigotes; assay: Antiamastigote assay (T. cruzi), ex vivo intracellular model using mice macrophages, microscopy; assay type: cell-based, Trypanosoma (T.) cruzi; conditions: Trypanosoma cruzi, Peritoneal macrophage, 48 h, ± SD, read-out: T. cruzi IC50 amastigotes
Procedure: T. cruzi also assumes several cell morphologies during its lifecycle, which differ between the insect vector and mammalian host. In the latter environment, the parasite transitions between extracellular bloodstream trypomastigotes and intracellular amastigotes; both forms are clinically relevant, particularly during the acute stage of Chagas disease.[34] In this work, antitrypanosomal activity was tested against both the amastigote form (evaluated microscopically using an ex vivo intracellular model using mice macrophages) and the trypomastigote form (using the resazurin in vitro assay).[33],[35] […] In silico predictions of pharmacokinetic profiles were carried out using the SwissADME webtool (see the Supporting Information for details).[36] […]
[…] Cultivation was performed in 2% fetal calf serum supplemented RPMI-1640 medium.
The trypomastigotes were maintained in a humidified incubator at 37 °C and with 5% CO2. […]
Peritoneal macrophages were obtained via washing the peritoneal cavity of BALB/c mice with 10% foetal calf serum supplemented RPMI-1640 medium (pH 7.2). The macrophages were maintained in a humidified incubator at 37 °C and with 5% CO2.
Biological activity assays […]
Peritoneal macrophages (1 × 10^5 cells/well) obtained from the peritoneal cavity of BALB/C mice were added to 16-well chambers (NUNC, Thermo Fischer Scientific). The cells were infected with trypomastigotes (10:1 parasites/macrophage) for 2 h. Then treatment of the infected macrophages with selected compounds (serially diluted 1.2 to 100 μM) was performed in a humidified incubator for 48 h at 37 °C and with 5% CO2. The treated cells were fixed on slides using methanol, stained with Giemsa and observed under a light microscope (EVOS M5000, Thermo, USA) with digital image equipment. The infection index was used in order to determine the half inhibitory concentration (IC50) (no. infected macrophages × no. amastigotes / total no.

[2] = tested on: L. mexicana promastigotes; assay: Light microscopy of cell morphology; assay type: cell-based, Leishmania (L.) mexicana
Procedure: Preliminary investigations into the mechanism of action for compounds (S)-9a, (S)-9b and (S,R)-11 were carried out using L. mexicana promastigotes. Light microscopy-based techniques were employed to further explore compound activity in a different, related Leishmania species. […] A solvent-only control using 0.1% (v/v) DMSO led to no significant effects. Cell cultures were examined by light microscopy to identify any morphological changes resulting from compound treatment (Figure 2B). […] Cells treated with the BI and BBI compounds develop a changed morphology with a spherical cell body or shortened flagellum. This effect is observed in 25% of the population for compound (S)-9a, to a greater extent (66%) for (S)-9b, and 27% for compound (S,R)-11. An abnormal number and position of Ks and Ns were often observed, with Ks and Ns sometimes less well-defined by Hoechst 33342 staining. […]
If the radar plot falls completely within the pink area, the compounds is predicted to have good oral […]
Figure S1. Bioavailability radars for hit compounds as generated by the SwissADME Webtool.
General Experimental Considerations
MTT was obtained from Molecular Probes® (Invitrogen™). Foetal calf serum (FCS, 10500064), M199 medium (M199 containing Earle’s salts and L-glutamine, 31100019), were purchased from Gibco. Hemin (H9039) was obtained from Sigma Aldrich. The FilterMax F5 Multi-Mode Microplate Reader spectrofluorimeter (Molecular Devices) was used to obtain all absorbance readings.
Microscopy was performed with a widefield fluorescence microscope (Axio Observer A1, Zeiss) using a 63× NA 1.4 Plan-Apochromat oil immersion objective lens and a 120V metal halide fluorescence light source (Zeiss, HXP 120V) with a Hamamatsu ORCA-Flash4.0 camera. Standard fluorescence microscopy was performed with a Green (ThorLabs, MDF-GFP2) and/or Blue (Zeiss, 49) filter cube. […]

Compound | IC50 [1] [µM] | Abnormal morphology (spherical cell body or shortened flagellum), share of population ([2]; 50 μM) [%] | Abnormal morphology (spherical cell body or shortened flagellum), share of population ([2]; 5 μM) [%]
COc1cc2c(cc1OC)[C@H](Cc1ccc(Br)cc1)N(C)CC2 [(S)-9a] | 25.1 ± 3.1 | 25 | –
COc1cc2c(cc1OC)[C@H](Cc1ccc(OC)c(OCc3ccccc3)c1)N(C)CC2 [(S)-9b] | 12.2 ± 0.5 | 66 | –
COc1cc2c(cc1OC)[C@@H](Cc1ccc(Oc3cc(C[C@H]4c5cc(OC)c(OC)cc5CCN4C)ccc3OC)cc1)N(C)CC2 [(S,R)-11, (−)-O,O′-dimethylgrisabine] | 2.2 ± 0.7 | – | 27
